Blank lines part the entries; values can stand above or below the compound they belong to.
Tests used:
B16/F0 cells = assay: Tumor-cell uptake in the presence of DTG; type: cell-based, murine; conditions: 37° C.; for IC50: read-out: DTG concentration at 50% maximal inhibition of complex uptake, intact B16/F0 cells, DTG as the inhibitor; for lower tumor-cell uptake after pre-incubation with DTG: DTG 90 μM, 30 min prior
From the text: J. Labelled Compd. Radiopharm. 1994, 35, 242-244; Vilner, B. J.; John, C. S.; Bowen, W. D. Sigma-I and Sigma-2 Receptors Are Expressed in a Wide Variety of Human and Rodent Tumor Cell Lines. Cancer Res. 1995, 55, 408-413; and John, C. S.; Vilner, B. J.; Gulden, M. E.; Efange, S. M. N.; Langason, R. B.; Moody, T. W.; Bowen, W. D. Synthesis and Pharmacological Characterization of 4-[^125I]-N-(N-Benzylpiperidin-4-yl)-4-iodobenzamide: A High Affinity σ Receptor Ligand for Potential Imaging of Breast Cancer. […] Pre-incubation of the tumor cells with DTG (90 μM), 30 min prior to the uptake experiments with the ^99mTc-complexes, yields a lower tumor-cell uptake for complexes Tc-(Compound A) (29% less), Tc-(Compound C) (33% less), and Tc-(Compound D) (32% less) at 37° C. (FIG. 4). Additional dose-response experiments conducted with intact B16/F0 cells at 37° C. with Tc-(Compound C) and DTG as the inhibitor (FIG. 3) show a DTG concentration-dependent decrease in the uptake of the complex.
The effect of the inhibitor DTG on cell uptake of these complexes was studied by addition of the inhibitor at various concentrations to the cell suspension 30 min prior to addition of the ^99mTc-complexes. Fresh DTG stock solutions were made by dissolving DTG (3.0 mg, 12.5 μmol) in 0.38 mL PBS and 0.12 mL hydrochloric acid (0.1 N) and subjecting the mixture to ultrasound until a clear solution was obtained, followed by the addition of 0.50 mL FBS to produce a neutral solution at pH 7.4. The stock solutions were diluted by an appropriate amount of S-MEM, and aliquots between 5 μL and 25 μL were added to the cell suspension such that the final concentration of DTG was between 0.02 μM and 120 μM in a total cell suspension volume of 350 μL.

[1] = Determination of lipophilicity and pKa values by HPLC; type: physicochemical; conditions: HPLC method
Method: The physicochemical parameters of the rhenium complexes, i.e. lipophilicity log P, log D(pH 7.4), and pKa (Table 2) were determined using HPLC methods (Braumann, T.; Grimme, L. H. Determination of Hydrophobic Parameters for Pyridazinone Herbicides by Liquid-Liquid Partition and Reversed-Phase High-Performance Liquid Chromatography. J. Chromatogr. 1981, 206, 7-15; Stytli, C.; Theobald, A. E. Determination of Ionization Constants of Radiopharmaceuticals in Mixed Solvents by HPLC. Appl. Radiat. Isot., 1987, 38, 701-708; Johannsen, B.; Scheunemann, M.; Spies, H.; Brust, P.; Wober, J.; Syhre, R.; Pietzsch, H.-J. Technetium(V) and Rhenium(V) Complexes for 5-HT2A Serotonin Receptor Binding: Structure-Affinity Considerations. Nucl. Med. Biol., 1996, 23, 429-438; and Johannsen, B.; Berger, R.; Brust, P.; Pietzsch, H.-J; Scheunemann, M.; Seifert, S.; Spies, H.; Syhre, R. Structural Modification of Receptor-Binding Technetium-99m Complexes in Order to Improve Brain Uptake. Eur. J. Nucl. Med. 1997, 24, 316-319). […] Since log D(pH 7.4) is a composite measure of log P and pKa, the log D(PH 7.4) of Re-Compound B (1.9) is also higher than that of Re-Compound A (1.1). […] With pKa values >9 for complexes Re-Compound C and Re-Compound D, the resulting low log D(PH 7.4) values of −0.5 (Re-Compound C) and 0.7 (Re-Compound D) are not surprising, since the complexes would exist in a protonated form at pH 7.4.
Determination of Lipophilicity and pKa Values. The lipophilicity and pKa values of all complexes were determined using HPLC methods described previously (Stylli, C.; Theobald, A. E. Determination of Ionization Constants of 4 Radiopharmaceuticals in Mixed Solvents by HPLC. Appl. Radiat. Isot., 1987, 38, 701-708; Johannsen, B.; Scheunemann, M.; Spies, H.; Brust, P.; Wober, J.; Syhre, R.; Pietzsch, H.-J. Technetium(V) and Rhenium(V) Complexes for 5-HT2A Serotonin Receptor Binding: Structure-Affinity Considerations. Nucl. Med. Biol., 1996, 23, 429-438; and Johannsen, B.; Berger, R.; Brust, P.; Pietzsch, H.-J.; Scheunemann, M.; Seifert, S.; Spies, H.; Syhre, R. Structural Modification of Receptor-Binding Technetium-99m Complexes in Order to Improve Brain Uptake. Eur. J. Nucl. Med. 1997, 24, 316-319). […] The mobile phase was acetonitrile:phosphate buffer (0.01 M), 3:1, v/v, with the aqueous buffer adjusted to the desired pH between 3 and 11. The capacity factor (k′) was calculated for each determination (Braumann, T.; Grimme, L. H. Determination of Hydrophobic Parameters for Pyridazinone Herbicides by Liquid-Liquid Partition and Reversed-Phase High-Performance Liquid Chromatography. J. Chromatogr. 1981, 206, 7-15; El Tayer, N.; van der Waterbeemd, H.; Testa, B. Lipophilicity Measurements of Protonated Basic Compounds by Reversed-Phase High-Performance Liquid Chromatography. II. Procedure for the Determination of a Lipophilic Index Measured by Reversed-Phase High Performance Liquid Chromatography. J. Chromatogr. 1985, 320, 305-312; and Minick, D. J.; Frenz, J. H.; Patrick, M. A.; Brent, D. A. A Comprehensive Method for Determining Hydrophobicity Constants by Reversed-Phase High-Performance Liquid Chromatography. J. Med. Chem., 1988, 31, 1923-1933) and the partition coefficient at a given pH (D or log D) were calculated from the equation: log D=a log k′+b where the parameters a and b are predetermined using standard amines. The fitted points of inflection from the sigmoidal DHPLC/pH profiles permit calculation of the pKHPLC(Stylli, C.; Theobald, A. E. Determination of Ionization Constants of Radiopharmaceuticals in Mixed Solvents by HPLC. Appl. Radiat. Isot., 1987, 38, 701-708). The aqueous ionization constants pKa were calculated from the pKHPLC values after correction with a predetermined correction factor obtained using standard amine compounds. Log P values of the neutral complexes were estimated from the respective upper plateau of the sigmoidal log D/pH curve in the alkaline range.

[2] = system: B16/F0 murine melanoma cells; assay: In-vitro tumor-cell uptake, melanoma cells; type: cell-based; conditions: for decrease in cell uptake, incubation temperature from 37° C. to 4° C.: 4° C. vs 37° C.; for maximal cell uptake: 37° C., B16/F0 cell line
Method: (§1) In-Vitro Tumor-Uptake Studies. Tumor-cell uptake studies in B16/F0 murine melanoma cells were performed with complexes Tc-(Compound A-D and H-M) at 37° C. and 4° C. Additionally, tumor-cell uptake of complex Tc-(Compound A) was investigated in another rapidly dividing MCF-7 human breast cancer cell line.
In-Vitro Cell Studies. Murine B16/F0 melanoma cells and human MCF-7 breast cancer cells were obtained from American Type Culture Collection, Manassas Va., (ATCC) and were grown in T-175 flasks in 14 mL Dulbecco's Modified Eagle Medium (D-MEM; Gibco, Life Technology, Gaithersburg, Md.) containing 4500 mg/L D-glucose, L-glutamine, and pyridoxine hydrochloride, 110 mg/L sodium pyruvate, 10% fetal bovine serum (FBS), 0.2% gentamicin and 0.5% penicillin-streptomycin solution. All cells were harvested from cell culture flasks by trypsinization with 1 mL trypsin-EDTA solution (0.25% trypsin, 1 mM EDTA×4 Na) (Gibco). After being washed with 12 mL Dulbecco's Phosphate-Buffered Saline (PBS) (Gibco), pH 7.2 (Ca^2+- and Mg^2+-free; g/L KCl, 0.20; KH2PO4, 0.20; NaCl, 8.00; Na2HPO4, 1.15), the cells were counted and resuspended in 8 mL S-MEM (Gibco) (Ca^2+ free, with reduced Mg^2+ content) and stored at 4° C. until use.
For in-vitro tumor-cell accumulation studies, 5×10^6 cells in polypropylene test tubes were incubated at 37° C. or 4° C., with intermittent agitation with 1-2 μCi (5 μL) ^99mTc-complex Tc-(Compound A-D) in a total volume of 350 μL S-MEM. At appropriate time intervals the tubes were vortexed and 8-μL samples were layered on 350 μL cold FBS in a 400-μL Eppendorf microcentrifuge tube. After centrifugation at 15,000 rpm for 2 min, the tubes were frozen in a dry ice-acetone bath. While still frozen, the bottom tip of the microcentrifuge tube containing the cell pellet was cut and placed in a counting tube. The remaining portion of the tube with the supernatant was placed in a separate counting tube. Both fractions were counted for radioactivity in a γ-counter (WALLAC, 1480 WIZARD 3″™). The amount of supernatant in the cell pellet was determined to be <1% in separate experiments. The percentage cell uptake of the ^99mTc-complex was calculated as: % uptake=[cpm(pellet)]/[cpm(pellet)+cpm(supernatant)]×100

[3] = system: MCF-7 human breast cancer cell line; assay: In-vitro tumor-cell uptake, breast cancer cells; type: cell-based; conditions: 37° C., MCF-7 cell line
Method: as §1
In-Vitro Cell Studies. […] After being washed with 12 mL Dulbecco's Phosphate-Buffered Saline (PBS) (Gibco), pH 7.2 (Ca^2+- and Mg^2+-free; g/L KCl, 0.20; KH2PO4, 0.20; NaCl, 8.00; Na2HPO4, 1.15), the cells were counted and resuspended in 8 mL S-MEM (Gibco) (Ca^2+ free, with reduced Mg^2+ content) and stored at 4° C. until use.
For in-vitro tumor-cell accumulation studies, 5×10^6 cells in polypropylene test tubes were incubated at 37° C. or 4° C., with intermittent agitation with 1-2 μCi (5 μL) ^99mTc-complex Tc-(Compound A-D) in a total volume of 350 μL S-MEM. […] Both fractions were counted for radioactivity in a γ-counter (WALLAC, 1480 WIZARD 3″™). The amount of supernatant in the cell pellet was determined to be <1% in separate experiments. The percentage cell uptake of the ^99mTc-complex was calculated as: % uptake=[cpm(pellet)]/[cpm(pellet)+cpm(supernatant)]×100

B16/F0 murine melanoma = assay: In-vivo tumor uptake and biodistribution; design: species or system C57B16 mice; conditions: mouse, in vivo
Method: In-Vivo Tumor Uptake. To study the tumor uptake of ^99mTc-complexes, Tc-(Compound A-D and J-K), in vivo, biodistribution experiments at 1 h and 6 h after their administration were carried out in C57B16 mice with palpable B16 melanoma nodules. The biodistribution data including melanoma/nontumor (M/NT) ratios for selected organs are summarized in Table 4 and 5 as percentage injected dose per gram ([…]).
Animal Studies. All animal experiments were performed in compliance with the Principles of Laboratory Animal Care (NIH publication #85-23, revised 1985). Biodistribution studies and tumor-uptake measurements were performed in C57B16 mice (15 to 20 g) bearing the B16/F0 murine melanoma on the hind limb. See for example the studies described in, which are hereby incorporated by reference, Brandau, W.; Niehoff, T.; Pulawski, P.; Jonas, M.; Dutschka, K.; Sciuk, J.; Coenen, H. H.; Schober, O. Structure Distribution Relationship of Iodine-123-Iodobenzamides as Tracers for the Detection of Melanotic Melanoma. J. Nucl. Med. 1996, 37, 1865-1871; Mohanmmed, A.; Nicholl, C.; Titsch, U.; Eisenhut, M. Radiojodinated N-(Alkylaminoalkyl)-Substituted 4-Methoxy-, 4-Hydroxy-, and 4-Aminobenzamides: Biological Investigations for the Improvement of Melanoma-Imaging Agents. Nucl. Med. Biol. 1997, 24, 373-380; Titsch, U.; Mohammed, A.; Wagner, S.; Oberdorfer, F.; Eisenhut, M. Syntheses of N-(2-Diethylaminoethyl)benzamides Suitable for ^99mTc Complexation. J. Labelled Compd. Radiopharm. 1997, 40, 416-418; Dittmann, H.; Coenen, H. H.; Zölzer, F.; Dutschka, K.; Brandau, W.; Streffer, C. In Vitro Studies on the Cellular Uptake of Melanoma Imaging Aminoalkyl-iodobenzamide Derivatives (ABA). Nucl. Med. Biol. 1999, 26, 51-56; and Michelot, J. M.; Moreau, M. F. C.; Veyre, A. J.; Bonafous, J. F.; Bacin, F. J.; Madelmont, J. C.; Bussiere, F.; Souteyrand, P. A.; Mauclaire, L. P.; Chossat, F. M.; Papon, J. M.; Labarre, P. G.; Kauffmann, Ph.; Plagne, R. J. Phase II Scintigraphic Clinical Trial of Malignant Melanoma and Metastases with Iodine-123-N-(2-Diethylaminoethyl 4-Iodobenzamide). J. Nucl. Med. 1993, 34, 1260-1266. The tumor cells (B16/F0), obtained from ATCC, were washed with PBS and transplanted subcutaneously on the left hind flank by an inoculation of 0.5×10^6 cells (0.1 mL). Ten to 14 days later the animals developed palpable tumor nodules 3 to 5 mm in diameter. The biodistribution studies were carried out by tail-vein injection of 25 to 30 μCi (0.05 to 0.1 mL) of the ^99mTc-labeled complexes Tc-(Compound A-D, H, J, K or M). At the designated time after tail-vein administration, the animals were weighed and sacrificed. The organs and tumors were harvested and, when appropriate, blotted dry, weighed, and counted in a gamma counter along with technetium-99m standards of the injected dose. The results are expressed as % ID/g tissue (Table 4 and 5)

IC50 (B16/F0 cells): 49 µM
Compound: CCN(CC)CCCN1CC[S][Tc]2(=[O])[S]CC[N]2C(=O)C1 (centres unmarked) [Tc-(Compound C)]

log D(pH 7.4) [1]: 0.7
Compound: CCCCN(CCCC)CCCN1CC[S][Re]2(=[O])[S]CC[N]2C(=O)C1 (centres unmarked) [Re-Compound D, [ReOAADT]-C3—NBu2]

mel/blood ratio (B16/F0 murine melanoma): 19
mel/lung ratio (B16/F0 murine melanoma): 12.7
mel/spleen ratio (B16/F0 murine melanoma): 19
Compound: CCN(CC)CCCN1CC[S][99Tc]2(=[O])[S]CC[N]2C(=O)C1 (centres unmarked) [Tc-(Compound C)]
decrease in cell uptake, incubation temperature from 37° C. to 4° C. [2]: 77%
maximal cell uptake [2]: 62%
maximum cell uptake [3]: 17%
lower tumor-cell uptake after pre-incubation with DTG (B16/F0 cells): 33%

IC50 (B16/F0 cells): 52 µM
Compound: CCCCN(CCCC)CCCN1CC[S][Tc]2(=[O])[S]CC[N]2C(=O)C1 (centres unmarked) [Tc-(Compound D)]

IC50 (B16/F0 cells): 21 µM
Compound: CCN(CC)CCN1CC[S][Tc]2(=[O])[S]CC[N]2C(=O)C1 (centres unmarked) [Tc-(Compound A)]

Second part, the compound before the results:

Compound: CCCCN(CCCC)CCN1CC[S][Re]2(=[O])[S]CC[N]2C(=O)C1 (centres unmarked) [Re-Compound B, [ReOAADT]-C2—NBu2]
log P [1]: 3.3
pKa [1]: 7.7
log D(pH 7.4) [1]: 1.9

Compound: CCCCN(CCCC)CCCN1CC[S][99Tc]2(=[O])[S]CC[N]2C(=O)C1 (centres unmarked) [Tc-(Compound D)]
decrease in cell uptake, incubation temperature from 37° C. to 4° C. [2]: 23%
maximal cell uptake [2]: 68%
lower tumor-cell uptake after pre-incubation with DTG (B16/F0 cells): 32%

Compound: CCN(CC)CCN1CC[S][Re]2(=[O])[S]CC[N]2C(=O)C1 (centres unmarked) [Re-Compound A, [ReOAADT]-C2—NEt2]
log P [1]: 1.6
pKa [1]: 7.7
log D(pH 7.4) [1]: 1.1

Source: patent US7321027B2, “Small technetium-99m and rhenium labeled agents and methods for imaging tumors” (President and Fellows of Harvard College, priority 2000, dated 2008)
